Results as given in patent publication US8329725B2, “Annelated pyrrolidin sulfonamides with oxadiazolone headgroup, processes for their preparation and their use as pharmaceuticals” (Sanofi, priority 2008, dated 2012).

Key:
human PPARdelta = biological target: T1, human PPARdelta (Homo sapiens, UniProt Q03181); experiment: Cellular PPARdelta assay (luciferase reporter, stably transfected HEK cell line); format: cell-based; conditions: PPARdelta reporter cell line (HEK, GR-GAL4-humanPPARdelta-LBD)
T1 construct: human PPARdelta receptor (amino acids S139-Y441); expressed in transfected cells
T1 sequence (Q03181 139-441): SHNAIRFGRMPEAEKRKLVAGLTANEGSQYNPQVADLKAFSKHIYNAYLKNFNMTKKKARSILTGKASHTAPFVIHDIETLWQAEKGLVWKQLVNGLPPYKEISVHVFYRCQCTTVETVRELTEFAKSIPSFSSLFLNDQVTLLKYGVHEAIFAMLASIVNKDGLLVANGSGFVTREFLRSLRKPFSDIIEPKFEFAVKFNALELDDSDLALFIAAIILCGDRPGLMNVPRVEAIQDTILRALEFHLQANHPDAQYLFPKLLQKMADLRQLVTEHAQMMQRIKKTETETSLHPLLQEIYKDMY
Experimental: Determination of EC50 Values of PPAR Agonists in the Cellular PPARdelta Assay
The potency of substances which bind to human PPARdelta and activate it in an agonistic manner is analyzed using a stably transfected HEK cell line (HEK=human embryo kidney) which is referred to here as PPARdelta reporter cell line. In analogy to the assay described for PPARalpha, the PPARdelta reporter cell line also contains two genetic elements, a luciferase reporter element (pdeltaM-GAL4-Luc-Zeo) and a PPARdelta fusion protein (GR-GAL4-humanPPARdelta-LBD) which mediates expression of the luciferase reporter element depending on a PPARdelta ligand. The stably and constitutively expressed fusion protein GR-GAL4-humanPPARdelta-LBD binds in the cell nucleus of the PPARdelta reporter cell line via the GAL4 protein portion to the GAL4 DNA binding motifs 5′-upstream of the luciferase reporter element which is stably integrated in the genome of the cell line. There is only little expression of the luciferase reporter gene in the absence of a PPARdelta ligand if fatty acid-depleted fetal calf serum (cs-FCS) is used in the assay. PPARdelta ligands bind and activate the PPARdelta fusion protein and thereby stimulate expression of the luciferase reporter gene. The luciferase which is formed can be detected by means of chemiluminescence via an appropriate substrate.
The production of the stable PPARdelta reporter cell line is based on a stable HEK-cell clone which was stably transfected with a luciferase reporter element. This step was already described above in the section “construction of the PPARalpha reporter cell line”. In a second step, the PPARdelta fusion protein (GR-GAL4-humanPPARdelta-LBD was stably introduced into this cell clone. For this purpose, the cDNA coding for the N-terminal 76 amino acids of the glucocorticoid receptor (Accession #P04150) was linked to the cDNA section coding for amino acids 1-147 of the yeast transcription factor GAL4 (Accession #P04386). The cDNA of the ligand-binding domain of the human PPARdelta receptor (amino acids S139-Y441; Accession #L07592) was cloned in at the 3′-end of this GR-GAL4 construct. The fusion construct prepared in this way (GR-GAL4-humanPPARdelta-LBD) was recloned into the plasmid pcDNA3 (Invitrogen) in order to enable constitutive expression by the cytomegalovirus promoter. This plasmid was linearized with a restriction endonuclease and stably transfected into the previously described cell clone containing the luciferase reporter element. […]
The activity of PPARdelta agonists is determined in a 3-day assay in exact analogy to the procedure already described for the PPARalpha reporter cell line except that the PPARdelta reporter cell line and a specific PPARdelta agonist was used as a standard to control test efficacy.

human PPARalpha = biological target: T2, human PPARalpha (Homo sapiens, UniProt Q07869); experiment: Cellular PPARalpha assay (luciferase reporter, stably transfected HEK cell line); format: cell-based; conditions: PPARalpha reporter cell line (HEK, GR-GAL4-humanPPARalpha-LBD)
T2 construct: human PPARalpha receptor (amino acids S167-Y468); expressed in transfected cells
T2 sequence (Q07869 167-468): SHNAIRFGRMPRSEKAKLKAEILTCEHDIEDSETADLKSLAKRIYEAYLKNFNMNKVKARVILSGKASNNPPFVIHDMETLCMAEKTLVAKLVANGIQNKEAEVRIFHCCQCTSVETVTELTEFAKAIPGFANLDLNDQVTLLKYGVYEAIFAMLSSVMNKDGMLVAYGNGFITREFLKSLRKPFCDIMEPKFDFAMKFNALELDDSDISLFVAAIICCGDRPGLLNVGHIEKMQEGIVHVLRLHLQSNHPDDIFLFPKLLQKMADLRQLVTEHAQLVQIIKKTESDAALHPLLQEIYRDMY
Experimental: Determination of EC50 Values of PPAR Agonists in the Cellular PPARalpha Assay
The potency of substances which bind to human PPARalpha and activate it in an agonistic manner is analyzed using a stably transfected HEK cell line (HEK=human embryo kidney) which is referred to here as PPARalpha reporter cell line. It contains two genetic elements, a luciferase reporter element (pdeltaM-GAL4-Luc-Zeo) and a PPARalpha fusion protein (GR-GAL4-humanPPARalpha-LBD) which mediates expression of the luciferase reporter element depending on a PPARalpha ligand. The stably and constitutively expressed fusion protein GR-GAL4-humanPPARalpha-LBD binds in the cell nucleus of the PPARalpha reporter cell line via the GAL4 protein portion to the GAL4 DNA binding motifs 5′-upstream of the luciferase reporter element which is stably integrated in the genome of the cell line. There is only weak expression of the luciferase reporter gene in the absence of a PPARalpha ligand if fatty acid-depleted fetal calf serum (cs-FCS) is used in the assay. PPARalpha ligands bind and activate the PPARalpha fusion protein and thereby stimulate the expression of the luciferase reporter gene. The luciferase which is formed can be detected by means of chemiluminescence via an appropriate substrate. […]
The activity of PPARalpha agonists is determined in a 3-day assay which is described below: […]

EC50 (human PPARdelta) | EC50 (human PPARalpha) | SMILES
3.55 µM | – | COc1nc(C)ccc1-c1ccc2c(c1)CCN2S(=O)(=O)c1ccc(-c2noc(=O)[nH]2)cc1 [Example 5, 3-{4-[5-(2-Methoxy-6-methyl-pyridin-3-yl)-2,3-dihydro-indole-1-sulfonyl]-phenyl}-4H-[1,2,4]oxadiazol-5-one]
1.3 µM | – | COc1ccc(-c2ccc3c(c2)CCN3S(=O)(=O)c2ccc(-c3noc(=O)[nH]3)cc2)nc1 [Example 8, 3-{4-[5-(5-Methoxy-pyridin-2-yl)-2,3-dihydro-indole-1-sulfonyl]-phenyl}-4H-[1,2,4]oxadiazol-5-one]
0.034 µM | 1.89 µM | O=c1[nH]c(-c2ccc(S(=O)(=O)N3CCc4cc(-c5ccc(C(F)(F)F)cc5)cnc43)cc2Cl)no1 [Example 14, 3-{2-Chloro-4-[5-(4-trifluoromethyl-phenyl)-2,3-dihydro-pyrrolo[2,3-b]pyridine-1-sulfonyl]-phenyl}-4H-[1,2,4]oxadiazol-5-one]
0.0025 µM | 0.8 µM | CC1(C)CN(S(=O)(=O)c2ccc(-c3noc(=O)[nH]3)c(Cl)c2)c2ccc(-c3ccc(C(F)(F)F)cc3)nc21 [Example 16, 3-{2-Chloro-4-[3,3-dimethyl-5-(4-trifluoromethyl-phenyl)-2,3-dihydro-pyrrolo[3,2-b]pyridine-1-sulfonyl]-phenyl}-4H-[1,2,4]oxadiazol-5-one]
